From ChEMBL document CHEMBL5150075 (J Med Chem, 2022)

Key:
DU-145 = test: Antiproliferative activity against human DU-145 cells assessed as inhibition of cell growth incubated for 72 hrs by MTT assay; format: functional, cell-based; details: DU-145, 72 h
BGC-823 = test: Antiproliferative activity against human BGC-823 cells assessed as inhibition of cell growth incubated for 72 hrs by MTT assay; format: functional, cell-based; details: BGC-823, 72 h
NCI-H460 = test: cells; details: Homo sapiens, NCI-H460, 72 h
Description: Antiproliferative activity against human NCI-H460 cells assessed as inhibition of cell growth incubated for 72 hrs by MTT assay

HepG2 = test: cells; details: Homo sapiens, HepG2, 72 h
MDA-MB-231 = test: cells; details: Homo sapiens, MDA-MB-231, 72 h
MCF7 = test: cells; details: Homo sapiens, MCF7, 72 h
Description: Antiproliferative activity against human MCF7 cells assessed as inhibition of cell growth incubated for 72 hrs by MTT assay

SW1990 = test: Antiproliferative activity against human SW1990 cells assessed as inhibition of cell growth incubated for 72 hrs by MTT assay; format: functional, cell-based; details: SW1990, 72 h
A549 [1] = test: Antitumor activity against paclitaxel-resistant human A549 cells xenografted in BALB/c nude mouse assessed as tumor growth inhibition at 24 mg/kg, po administered once daily and measured twice a week relative to control; format: functional; details: read-out: TGI
B16-F10 = test: Antiproliferative activity against mouse B16-F10 cells assessed as inhibition of cell growth incubated for 72 hrs by MTT assay; format: functional, cell-based; details: B16-F10, 72 h
NCI-H1437 = test: Antiproliferative activity against human NCI-H1437 cells assessed as inhibition of cell growth incubated for 72 hrs by MTT assay; format: functional, cell-based; details: NCI-H1437, 72 h
HGC-27 = test: Antiproliferative activity against human HGC-27 cells assessed as inhibition of cell growth incubated for 72 hrs by MTT assay; format: functional, cell-based; details: HGC-27, 72 h
MCF7R = test: Antiproliferative activity against paclitaxel-resistant human MCF7R cells assessed as inhibition of cell growth incubated for 72 hrs by MTT assay; format: functional, cell-based
HUVEC = test: Anti-angiogenesis activity against HUVEC cells assessed as inhibition of cell growth incubated for 72 hrs by MTT assay; format: functional, cell-based; details: Homo sapiens
HCT-116 = test: cells; details: Homo sapiens, HCT-116, 72 h
Description: Antiproliferative activity against human HCT-116 cells assessed as inhibition of cell growth incubated for 72 hrs by MTT assay

NCI-H1299 = test: Antiproliferative activity against human NCI-H1299 cells assessed as inhibition of cell growth incubated for 72 hrs by MTT assay; format: functional, cell-based; details: NCI-H1299, 72 h
A549 [2] = test: Antiproliferative activity against paclitaxel-resistant human A549 cells assessed as inhibition of cell growth incubated for 72 hrs by MTT assay; format: functional, cell-based; details: A549, 72 h
HCT-8 = test: Antiproliferative activity against human HCT-8 cells assessed as inhibition of cell growth incubated for 72 hrs by MTT assay; format: functional, cell-based; details: HCT-8, 72 h
A549 [3] = test: cells; details: Homo sapiens, A549, 72 h

SMILES	IC50 (DU-145) [µM]	also measured
Cc1ccc(S(=O)(=O)Nc2cc(C(=O)NCc3cccnc3)ccc2C)cc1	0.12	
CCc1ccc(S(=O)(=O)Nc2cc(C(=O)NCc3cccnc3)ccc2C)cc1	0.04	
COc1cc(NS(=O)(=O)c2ccc(C)cc2)cc(C(=O)NCc2cccnc2)c1	6.2	
Cc1ccc(C(=O)NCc2cccnc2)cc1NS(=O)(=O)c1ccccc1	> 10	
COc1ccc(NS(=O)(=O)c2ccc(C)cc2)cc1C(=O)NCc1cccnc1	> 10	
Cc1ccc(C(=O)NCc2cccnc2)cc1NS(=O)(=O)c1ccc2c(c1)OCO2	0.61	
Cc1ccc(S(=O)(=O)Nc2cc(C(=O)Nc3cccnc3)ccc2C)cc1	> 10	
Cc1ccc(C(=O)NCc2cccnc2)cc1NS(=O)(=O)c1ccc(F)cc1	3.5	
Cc1ccc(C(=O)NCc2cccnc2)cc1NS(=O)(=O)c1ccc(C#N)cc1	> 10	
Cc1ccc(S(=O)(=O)Nc2cc(C(=O)NC3(c4cnccn4)CC3)ccc2C)cc1	0.8	
Cc1ccc(S(=O)(=O)Nc2cc(C(=O)NCc3cccnc3)ccc2Cl)cc1	0.8	
Cc1ccc(C(=O)NCc2cccnc2)cc1NS(=O)(=O)c1ccc2ccccc2c1	1	
Cc1ccc(C(=O)NCc2cccnc2)cc1NS(=O)(=O)c1ccc2c(c1)CCC2	0.9	
CCc1ccc(S(=O)(=O)Nc2cc(C(=O)NCc3ccc(C)nc3)ccc2C)cc1	0.011	
Cc1ccc(S(=O)(=O)Nc2cc(C(=O)NCc3cccnc3)ccc2C(F)(F)F)cc1	> 10	
Cc1ccc(C(=O)NCc2cccnc2)cc1NS(=O)(=O)c1ccc(Cl)cc1	0.93	
Cc1ccc(S(=O)(=O)Nc2cc(C(=O)NCc3cccnc3)ccc2F)cc1	0.79	
Cc1ccc(C(=O)NCc2cccnc2)cc1NS(=O)(=O)c1ccc(C(F)(F)F)cc1	5.3	
Cc1ccc(C(=O)NCc2cccnc2)cc1NS(=O)(=O)c1ccc(OC(F)(F)F)cc1	> 10	
CC(=O)O[C@H]1C(=O)[C@@]2(C)[C@H]([C@H](OC(=O)c3ccccc3)[C@]3(O)C[C@H](OC(=O)[C@H](O)[C@@H](NC(=O)c4ccccc4)c4ccccc4)C(C)=C1C3(C)C)[C@]1(OC(C)=O)CO[C@@H]1C[C@@H]2O [PACLITAXEL]	< 0.001	IC50 (BGC-823): < 0.001 µM; IC50 (NCI-H460): < 0.001 µM; IC50 (HepG2): < 0.001 µM; IC50 (MDA-MB-231): < 0.001 µM; IC50 (MCF7): < 0.001 µM; IC50 (SW1990): 0.01 µM; inhibition in vivo at 24 mg/kg (A549 [1]): 53.8%; IC50 (B16-F10): < 0.001 µM; IC50 (NCI-H1437): < 0.001 µM; IC50 (HGC-27): < 0.001 µM; IC50 (MCF7R): 0.19 µM; IC50 (HUVEC): 0.071 µM; IC50 (HCT-116): < 0.001 µM; IC50 (NCI-H1299): 0.009 µM; IC50 (A549 [2]): 0.39 µM; IC50 (HCT-8): 0.086 µM
Cc1ccc(C(=O)NCc2cccnc2)cc1NS(=O)(=O)c1ccc(C(C)C)cc1	1	
Cc1ccc(C(=O)NCc2cccnc2)cc1NS(=O)(=O)c1ccc2c(c1)CCO2	1.2	
Cc1ccc(S(=O)(=O)Nc2cc(C(=O)NCCc3cccnc3)ccc2C)cc1	> 10	
CCCCc1ccc(S(=O)(=O)Nc2cc(C(=O)NCc3cccnc3)ccc2C)cc1	> 10	
Cc1ccc(S(=O)(=O)Nc2cc(F)cc(C(=O)NCc3cccnc3)c2)cc1	0.9	
CNC(=O)c1ccc(C)c(NS(=O)(=O)c2ccc(C)cc2)c1	> 10	
Cc1ccc(C(=O)NCc2cccnc2)cc1NS(=O)(=O)c1ccc2c(c1)OCCO2	0.42	

SMILES	IC50 (DU-145) [µM]	also measured
Cc1ccc(S(=O)(=O)Nc2cccc(C(=O)NCc3cccnc3)c2)cc1	0.7	
COc1cc2c(c(OC)c1OC)-c1ccc(OC)c(=O)cc1[C@@H](NC(C)=O)CC2 [COLCHICINE]	0.003	IC50 (BGC-823): 0.016 µM; IC50 (NCI-H460): 0.054 µM; IC50 (HepG2): 0.002 µM; IC50 (MDA-MB-231): 0.023 µM; IC50 (MCF7): 0.006 µM; IC50 (SW1990): 0.01 µM; IC50 (B16-F10): 0.003 µM; IC50 (NCI-H1437): 0.002 µM; IC50 (HGC-27): 0.003 µM; IC50 (A549 [3]): 0.03 µM; IC50 (HCT-116): 0.003 µM; IC50 (NCI-H1299): 0.004 µM; IC50 (HCT-8): 0.022 µM
Cc1ccc(S(=O)(=O)Nc2cc(C(=O)NCc3cccnc3)cc(C(F)(F)F)c2)cc1	> 10	
Cc1ccc(S(=O)(=O)Nc2ccc(F)c(C(=O)NCc3cccnc3)c2)cc1	> 10	
Cc1ccc(C(=O)NCc2cccnc2)cc1NS(=O)(=O)c1ccc(C(C)(C)C)cc1	> 10	
Cc1ccc(S(=O)(=O)Nc2cc(C(=O)NC(C)c3cnccn3)ccc2C)cc1 (stereo not drawn)	0.51	
Cc1ccc(S(=O)(=O)Nc2cc(C#N)cc(C(=O)NCc3cccnc3)c2)cc1	> 10	
Cc1ccc(C(=O)NCc2cccnc2)cc1NS(=O)(=O)c1ccc(C2CC2)cc1	0.05	
Cc1ccc(S(=O)(=O)Nc2cc(Cl)cc(C(=O)NCc3cccnc3)c2)cc1	0.34	
Cc1ccc(S(=O)(=O)Nc2ccc(Cl)c(C(=O)NCc3cccnc3)c2)cc1	> 10	
Cc1ccc(S(=O)(=O)Nc2cc(C)cc(C(=O)NCc3cccnc3)c2)cc1	0.34	
Cc1ccc(S(=O)(=O)Nc2cc(C(=O)NCc3ccc(C(F)(F)F)nc3)ccc2C)cc1	0.2	
Cc1ccc(S(=O)(=O)Nc2cc(C(=O)NCc3ccc(Cl)nc3)ccc2C)cc1	0.065	
Cc1ccc(S(=O)(=O)Nc2cc(C(=O)NCc3ccccn3)ccc2C)cc1	> 10	
Cc1ccc(S(=O)(=O)Nc2cc(C(=O)NCc3cccnc3)ccc2C)cc1C	0.97	
Cc1ccc(S(=O)(=O)Nc2cc(C(=O)NCc3ccncc3)ccc2C)cc1	1.7	
COc1ccc(S(=O)(=O)Nc2cc(C(=O)NCc3cccnc3)ccc2C)cc1	0.18	
COc1ccc(C(=O)NCc2cccnc2)cc1NS(=O)(=O)c1ccc(C)cc1	9.5	
Cc1ccc(S(=O)(=O)Nc2ccc(C)c(C(=O)NCc3cccnc3)c2)cc1	2	
Cc1ccc(S(=O)(=O)Nc2cc(C(=O)NCc3ccccc3)ccc2C)cc1	> 10	
CCOc1ccc(S(=O)(=O)Nc2cc(C(=O)NCc3cccnc3)ccc2C)cc1	0.86	
Cc1ccc(S(=O)(=O)Nc2cc(C(=O)NCc3ccnnc3)ccc2C)cc1	1.3	
Cc1ccc(S(=O)(=O)Nc2cc(C(=O)NCc3cnccn3)ccc2C)cc1	> 10	
Cc1ccc(S(=O)(=O)Nc2cc(C(=O)NCc3cccnc3)ccc2C)c(C)c1	0.5	
CCCc1ccc(S(=O)(=O)Nc2cc(C(=O)NCc3cccnc3)ccc2C)cc1	9.7	
Cc1ccc(CNC(=O)c2ccc(C)c(NS(=O)(=O)c3ccc(C4CC4)cc3)c2)cn1	0.012	
CCc1ccc(C(=O)NCc2cccnc2)cc1NS(=O)(=O)c1ccc(C)cc1	0.86	
